Assay results reported in US7737169B2, “Anionically substituted 7-nitroindoline derivatives and their uses” (Medical Research Council, priority 2005, dated 2010).

Columns and labels:
[1] = tested on: GABA receptors; settings: caged ester before photolysis; cited from earlier work
[2] = tested on: GABA channels; assay: photolytic release of GABA onto neuronal cells, current responses (FIG. 1); assay type: cell-based
Text: FIG. 1. Current responses to photolytic release of GABA from various concentrations of 6 onto two different neuronal cells, as specified in the FIGURE. The experimental set-up and protocol was as described in reference 4.
A previous evaluation of nitroindoline-caged amino acids in neural tissue has been published^4. […] Tests described here were to assess the photolytic efficiency of GABA release in a neurophysiological experiment with particular attention to point (3), namely the presence or absence of interference of the new caged GABA with GABA-activated channels. If interference is low the expectation is that the rise-time of the receptor activation by photoreleased GABA in the presence of high cage concentration should be similar to that generated by endogenously released GABA, rising in 1-2 ms.

| Compound | pharmacological effects [1] | rise-time of current through GABA channels ([2]; 0.5 mM GABA released, 1.5 mM caged GABA present, FIG. 1 left panel) | amplitude and rate of rise of currents through GABA channels ([2]; 20-200 μm GABA released by different photolysis intensities, 1.4 mM caged GABA present, FIG. 1 right panel) |
| --- | --- | --- | --- |
| NCCCC(=O)OC(C(=O)O)c1ccccc1[N+](=O)[O-] (stereo not drawn) [Compound 5, α-carboxy-2-nitrobenzyl ester of GABA] | no pharmacological effects |  |  |
| NCCCC(=O)N1CCc2c(OC(COP(=O)(O)O)COP(=O)(O)O)ccc([N+](=O)[O-])c21 [Compound 6, 1-(4-Aminobutanoyl)-4-[1,3-bis(dihydroxyphosphoryloxy)propan-2-yloxy]-7-nitroindoline] |  | 1 ms | increasing amplitudes and rates of rise at high concentration |
